{
  "source": "patent US20160279236A1",
  "about": "“USE OF RAPAMYCIN AS VACCINE ADJUVANT AND PREPARATION METHOD THEREFOR” (INSTITUT PASTEUR OF SHANGHAI, CHINESE ACADEMY OF SCIENCES, priority 2013, published 2016)",
  "key": {"BMDCs [1]": {"system": "BMDCs", "assay": "Cytokine production (ELISA) in LPS-stimulated BMDCs pre-treated with rapamycin", "type": "cell-based, C57BL/6 mice", "description": "Bone marrow stem cells from 6-8 weeks aged C57BL/6 mice were taken, and erythrocytes were removed by using ammonium chloride lysate (0.15 M NH4Cl, 1 mM […], 0.1 mM Na2EDTA, pH7.3), and then suspension-cultured at a cell density of 10^6 cells/mL in a dendritic cell (bone-marrow derived dendritic cell, BMDC) differentiation medium (formulation of which was: RPMI 1640 complete medium (comprising 5% (v/v) FBS and 1% (v/v) pen strep), with 20 ng/ml GM-CSF, 10 ng/ml IL-4, 2 mM L-glutamine and 200 μM β-mercaptoethanol being added). After differentiation for 7 days, the cells were purified with CD11c magnetic beads to obtain BMDCs. The purified BMDCs were resuspended in a fresh dendritic cell culture medium (10^6 cells/ml), and inoculated into 24-well plate with 500 μL per well 100 nM of rapamycin or DMSO (control) were used to pre-treat the cells for 1 hour, and then the cells were stimulated with 100 ng/ml LPS for 24 hours. The supernatant was taken and the amount of IL-12 was measured by ELISA."}, "[2]": {"system": "HBsAg-specific antibody titers", "assay": "HBsAg homologous prime-boost immunization with adjuvants", "type": "in vivo, C57BL6 mice", "description": "HBsAg (5 μg/mouse) was respectively mixed with the following adjuvants or adjuvant combinations: rapamycin (100 μg/mouse)+MPL (10 μg/mouse), MPL (10 μg/mouse), rapamycin (100 μg/mouse) or Alum (200 μg/mouse)+MPL (10 μg/mouse) to immunize (primary immunization) C57BL6 mice. After 4 weeks, each group of mice was boosted according to the same program as the primary immunization. The mice were killed after two weeks, and serum was prepared for determining the content of HBsAg-specific IgG1, IgG2b and IgG2c."}, "[3]": {"system": "immune response against HCV outer membrane protein E2", "assay": "HCV E2 protein immunization with adjuvants: T cell and antibody responses", "type": "in vivo, C57BL/6 mice", "conditions": "E2 protein 20 μg/mouse; Alum 200 μg, MPL 10 μg, rapamycin 100 μg per mouse; IFNγ ELISA of E2-stimulated spleen cells, FIG. 7A", "description": "C57BL/6 mice were immunized using purified E2 protein (20 μg/mouse, bought from eEnzyme company, Cat No. HCV-E21b) as antigen in mixture with Alum (200 μg/mouse), MPL (10 μg/mouse), rapamycin (100 μg/mouse), MPL (10 µg/mouse)+rapamycin (100 μg/mouse) respectively, and after 4 weeks, were boosted by the same antigen+adjuvant program. 8 weeks after the secondary immunization, mice were immunized for one time with E2 protein (without MPL or rapamycin) (5 μg/mouse), and the mice were killed after 2 weeks. Spleen cells were taken to determine immune response of T cells (FIG. 7A), and serum was taken to determine antibody titers (FIG. 7B). The spleen cells (5×10^5 cells) were stimulated with 10 μg/ml of E2 protein. After 48 hours, the content of IFNγ in the supernatant was determined by enzyme linked immunosorbent assay (ELISA). […] Meanwhile, antibody response induced by the combination of rapamycin and MPL was also the best, which was better than MPL or alum alone (FIG. 7B)."}, "BMDCs [4]": {"system": "BMDCs", "assay": "IL-12 expression (ELISA) in BMDCs stimulated by Toll-like receptor agonists with or without rapamycin", "type": "cell-based, mouse", "conditions": "rapamycin 100 nM 1 hour", "description": "The present inventors have firstly studied the influence of rapamycin on IL-12 expression induced by a variety of Toll-like receptors agonist including polyI:C by in vitro experiments. Dendritic cells differentiated from mouse bone marrow cells (BMDCs differentiated for 7 days with 20 ng/ml GM-CSF and 10 ng/ml IL-4) were pre-treated with or without rapamycin (100 nM) for 1 hour, and stimulated by LPS (100 ng/ml), MPL (1 μg/ml), R848 (1 μg/ml) and polyI:C (20 μg/ml) respectively for 24 hours, and cell culture media were taken to determine the content of IL-12 by ELISA."}, "[5]": {"conditions": "BMDCs, 100 nM rapamycin, 100 ng/ml LPS"}, "[6]": {"conditions": "after immunized for two times, HBsAg 5 μg/mouse, rapamycin 100 μg/mouse, serum two weeks after boost"}},
  "note": "Entries after “also recorded” stand apart in the source; their conditions may differ.",
  "data": [
    {"smiles": "CO[C@H]1C[C@@H]2CC[C@@H](C)[C@@](O)(O2)C(=O)C(=O)N2CCCC[C@H]2C(=O)O[C@H]([C@H](C)C[C@@H]2CC[C@@H](O)[C@H](OC)C2)CC(=O)[C@H](C)/C=C(\\C)[C@@H](O)[C@@H](OC)C(=O)[C@H](C)C[C@H](C)/C=C/C=C/C=C/1C", "note": "[rapamycin]", "values": [
      {"measurement": "amount of IL-12, increase compared with the control group", "setting": "BMDCs [1]; 100 nM rapamycin pre-treatment 1 hour, 100 ng/ml LPS 24 hours, supernatant ELISA, DMSO control", "result": "more than 3 times"},
      {"measurement": "LPS-induced IL-12 production", "setting": "BMDCs [1]; [5]", "result": "enhanced; also recorded: promote"},
      {"measurement": "induced-secretion of IL-23", "setting": "BMDCs [1]; [5]", "result": "remarkably increase; also recorded: enhanced; also recorded: promote"},
      {"measurement": "production of IL-10", "setting": "BMDCs [1]; [5]", "result": "inhibit the production; also recorded: inhibited"},
      {"measurement": "LPS-induced IL-12 production", "setting": "BMDCs [1]; BMDCs, 100 nM rapamycin, 100 ng/ml LPS, listed as Rapamycin", "result": "significantly enhance"},
      {"measurement": "HBsAg-induced antibody titers, IgG1", "setting": "[2]; [6]", "result": "significantly enhance"},
      {"measurement": "HBsAg-induced antibody titers, IgG2b", "setting": "[2]; [6]", "result": "significantly enhance"},
      {"measurement": "HBsAg-induced antibody titers, IgG2c", "setting": "[2]; [6]", "result": "significantly enhance"},
      {"measurement": "adjuvant activity of MPL", "setting": "[2]; homologous prime-boost immunization program, FIG. 6", "result": "remarkably enhance"},
      {"measurement": "immune response of IFN-γ secreting T cells against HCV E2", "setting": "[3]", "result": "inferior effect"},
      {"measurement": "IL-12 expression induced by lipopolysaccharide", "setting": "BMDCs [4]; LPS 100 ng/ml 24 hours", "result": "enhance"},
      {"measurement": "IL-12 expression induced by MPL", "setting": "BMDCs [4]; MPL 1 μg/ml 24 hours", "result": "enhance; also recorded: effectively enhanced"},
      {"measurement": "IL-12 expression induced by R848", "setting": "BMDCs [4]; R848 1 μg/ml 24 hours", "result": "effectively enhanced"},
      {"measurement": "IL-12 expression induced by polyI:C", "setting": "BMDCs [4]; polyI:C 20 μg/ml 24 hours", "result": "effectively enhanced"}
    ]}
  ]
}
